Measured values reported in patent US8106055B2, “Substituted amide compounds” (Gruenenthal GmbH, priority 2007, dated 2012).

How the values were obtained:
human μ opiate receptor = molecular target: T1, human μ opiate receptor (Homo sapiens, UniProt P35372); assay: Affinity for the human μ opiate receptor ([3H]-naloxone displacement, CHO-K1 receptor membrane preparation, SPA); type: binding; settings: test concentration of 1 μM
T1 construct: purchased PerkinElmer Life Sciences, Zaventem, Belgium RB-HOM; host or cells: CHO-K1 cells (membrane preparation)
How it was run: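 Test compounds, 1 nmol/l [3H]-naloxone and CHO-K1 membranes bearing the human μ opiate receptor are combined with WGA-SPA beads. After 90 minutes at room temperature, plates are centrifuged and radioactivity counted. Specific-binding inhibition at 1 μmol/l is given in percent.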

[1] = molecular target: T2, bradykinin 1 receptor (B1R) of the rat (Rattus norvegicus, UniProt P97583); assay: Functional investigation on the rat bradykinin 1 receptor (B1R), Ca2+ FLIPR assay in CHO K1 rB1R cells; type: cell-based; settings: B1R antagonism rat; test substance 10 μM; Ca2+ FLIPR, CHO K1 rB1R cells
T2 construct: expressed in transfected cells; host or cells: CHO K1 cells
T2 sequence (P97583 1-337): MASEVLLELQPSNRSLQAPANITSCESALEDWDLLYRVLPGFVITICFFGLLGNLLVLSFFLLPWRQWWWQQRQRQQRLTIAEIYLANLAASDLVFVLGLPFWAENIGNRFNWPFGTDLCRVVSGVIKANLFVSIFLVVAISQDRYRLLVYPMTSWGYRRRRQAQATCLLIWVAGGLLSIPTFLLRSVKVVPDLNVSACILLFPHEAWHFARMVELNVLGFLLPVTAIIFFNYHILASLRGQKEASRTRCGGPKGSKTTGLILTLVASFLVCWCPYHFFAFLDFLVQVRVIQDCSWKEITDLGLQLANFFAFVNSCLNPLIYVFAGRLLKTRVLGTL
How it was run: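 Fluo-4 Ca2+ readout, peak fluorescence. Stable CHO K1 transfectants; compound pre-incubated 10-20 min, then EC80 agonist—Lys-Des-Arg9-BK for hB1R, Des-Arg9-BK for rB1R. % inhibition vs maximal inhibition; IC50 from multiple concentrations, duplicate/triplicate, ≥2 independent runs.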

T1 sequence (P35372 whole entry): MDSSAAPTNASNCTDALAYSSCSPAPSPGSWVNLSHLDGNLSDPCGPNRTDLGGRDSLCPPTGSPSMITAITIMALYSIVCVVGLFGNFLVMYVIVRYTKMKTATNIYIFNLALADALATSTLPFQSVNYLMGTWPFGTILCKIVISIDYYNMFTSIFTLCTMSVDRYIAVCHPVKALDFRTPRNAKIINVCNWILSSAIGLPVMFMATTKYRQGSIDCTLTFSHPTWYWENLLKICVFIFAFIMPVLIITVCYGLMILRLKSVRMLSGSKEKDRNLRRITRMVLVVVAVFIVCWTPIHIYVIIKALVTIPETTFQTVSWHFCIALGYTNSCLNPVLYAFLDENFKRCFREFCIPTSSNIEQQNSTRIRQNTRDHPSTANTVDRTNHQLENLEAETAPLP

Row | Compound | μ (binding on the μ opioid receptor, % inhibition) (human μ opiate receptor) | B1R Ant. r [10 μM] % Inhibition [1]
1 | COc1ccc(S(=O)(=O)N2CCCCC2COCC(=O)NC2CCC(C(c3ccc(F)cc3)N(C)C)CC2)cc1 (centres unmarked) [Example 450] | 50% | 52%
2 | CN(C)C(CCc1ccccc1)C1CCC(CNC(=O)COC2CCCCC2N(C)S(=O)(=O)c2ccc(Cl)c(Cl)c2)CC1 (centres unmarked) [Example 451] | 48% | 11%
3 | Cc1ccc(S(=O)(=O)N(C)CCOCC(=O)NCC2CCC(C(CCc3ccccc3)N(C)C)CC2)cc1 (centres unmarked) [Example 452] | 46% | 18%
4 | COc1cc(C)c(S(=O)(=O)N2CCC(OCC(=O)NC3CCC(C(c4ccc(F)cc4)N(C)C)CC3)CC2)c(C)c1C (centres unmarked) [Example 454] | 48% | 10%
5 | CN(C)C(c1ccc(F)cc1)C1CCC(CCNC(=O)COC2CCN(S(=O)(=O)c3ccc(Cl)cc3Cl)C2)CC1 (centres unmarked) [Example 456] | 50% | 48%
6 | Cc1ccc(S(=O)(=O)N(C)CCOCC(=O)NCCC2CCC(C(c3ccc(F)cc3)N(C)C)CC2)cc1 (centres unmarked) [Example 457] | 47% | 11%
7 | COc1cc(C)c(S(=O)(=O)N(C)CCOCC(=O)NCC2CCC(C(c3ccc(F)cc3)N(C)C)CC2)c(C)c1 (centres unmarked) [Example 458] | 48% | 104%
8 | CN(C)C(c1ccc(Cl)cc1)C1CCC(CNC(=O)COCCN(C)S(=O)(=O)c2ccc(Cl)cc2Cl)CC1 (centres unmarked) [Example 459] | 36% | 26%
9 | COc1ccc(S(=O)(=O)N(C)CCOCC(=O)NCCC2CCC(C(c3ccc(Cl)cc3)N(C)C)CC2)cc1 (centres unmarked) [Example 460] | 52% | 71%
10 | COc1ccc(S(=O)(=O)N2CCCC2COCC(=O)NC2CCC(C(c3ccc(F)cc3)N(C)C)CC2)cc1 (centres unmarked) [Example 461] | 43% | 20%
11 | COc1ccc(S(=O)(=O)N2CCCCC2COCC(=O)NCCC2CCC(C(c3ccc(F)cc3)N(C)C)CC2)cc1OC (centres unmarked) [Example 462] | 51% | −13%
12 | CN(C)C(c1ccc(F)cc1)C1CCC(NC(=O)COC2CCN(S(=O)(=O)c3ccccc3)C2)CC1 (centres unmarked) [Example 463] | 38% | 17%
13 | CN(C)C(c1ccc(F)cc1)C1CCC(CCNC(=O)COC2CCN(S(=O)(=O)c3ccc(Cl)cc3)C2)CC1 (centres unmarked) [Example 464] | 46% | −6%
14 | CN(C)C(c1ccc(F)cc1)C1CCC(CCNC(=O)COC2CCN(S(=O)(=O)c3cccc(C(F)(F)F)c3)C2)CC1 (centres unmarked) [Example 466] | 30% | 22%
15 | COc1cc(C)c(S(=O)(=O)N2CCC(OCC(=O)NCCC3CCC(C(c4ccc(F)cc4)N(C)C)CC3)C2)c(C)c1C (centres unmarked) [Example 467] | 40% | 47%
16 | COc1cc(C)c(S(=O)(=O)N2CCCC(OCC(=O)NCCC3CCC(C(c4ccc(F)cc4)N(C)C)CC3)C2)c(C)c1C (centres unmarked) [Example 468] | 53% | 33%
17 | COc1ccc(S(=O)(=O)N2CCCCC2COCC(=O)NCC2CCC(C(CCc3ccccc3)N(C)C)CC2)cc1 (centres unmarked) [Example 469] | 50% | 87%
18 | CN(C)C(c1ccc(F)cc1)C1CCC(CCNC(=O)COCCC2CCN(S(=O)(=O)c3ccccc3)CC2)CC1 (centres unmarked) [Example 470] | 35% | 23%
19 | CN(C)C(c1ccc(Cl)cc1)C1CCC(CNC(=O)COC2CCN(S(=O)(=O)c3ccccc3)CC2)CC1 (centres unmarked) [Example 471] | 35% | 15%

Row | Compound | μ (binding on the μ opioid receptor, % inhibition) (human μ opiate receptor) | B1R Ant. r [10 μM] % Inhibition [1]
20 | COc1cc(C)c(S(=O)(=O)N2CCC(OCC(=O)NCCC3CCC(C(c4ccc(Cl)cc4)N(C)C)CC3)CC2)c(C)c1C (centres unmarked) [Example 472] | 44% | 26%
21 | COc1cc(C)c(S(=O)(=O)N(CCOCC(=O)NCC2CCC(C(c3ccc(Cl)cc3)N(C)C)CC2)Cc2ccccc2)c(C)c1 (centres unmarked) [Example 473] | 34% | −3%
22 | COc1ccc(S(=O)(=O)N2CCCCC2COCC(=O)NCCC2CCC(C(c3ccc(Cl)cc3)N(C)C)CC2)c(OC)c1 (centres unmarked) [Example 474] | 46% | 10%
23 | Cc1cc(C)c(S(=O)(=O)N2CCC(OCC(=O)NCC3CCC(C(CCc4ccccc4)N(C)C)CC3)C2)c(C)c1 (centres unmarked) [Example 475] | 48% | 40%
24 | CN(C)C(c1cccc(F)c1)C1CCC(CNC(=O)COC2CCN(S(=O)(=O)c3ccccc3)CC2)CC1 (centres unmarked) [Example 477] | 51% | 17%
25 | CN(C)C(c1ccc(F)cc1)C1CCC(NC(=O)COCC2CCCN(S(=O)(=O)c3ccccc3)C2)CC1 (centres unmarked) [Example 478] | 40% | 23%
26 | CN(C)C(c1ccc(F)cc1)C1CCC(CCNC(=O)COCC2CCCN(S(=O)(=O)c3ccccc3)C2)CC1 (centres unmarked) [Example 479] | 42% | 22%
27 | COc1cc(C)c(S(=O)(=O)N2CCC(OCC(=O)NCCC3CCC(C(c4ccc(F)cc4)N(C)C)CC3)CC2)c(C)c1C (centres unmarked) [Example 480] | 38% | 4%
28 | COc1cc(C)c(S(=O)(=O)N2CCC(CCOCC(=O)NCC3CCC(C(c4ccc(F)cc4)N(C)C)CC3)CC2)c(C)c1C (centres unmarked) [Example 481] | 38% | 49%
29 | COc1ccc(S(=O)(=O)N(C)CCOCC(=O)NCCC2CCC(C(c3ccc(F)cc3)N(C)C)CC2)cc1OC (centres unmarked) [Example 484] | 35% | 19%
30 | COc1cc(C)c(S(=O)(=O)N2CCCC(OCC(=O)NCCC3CCC(C(c4ccc(Cl)cc4)N(C)C)CC3)C2)c(C)c1C (centres unmarked) [Example 485] | 46% | 6%
31 | CN(C)C(c1ccc(F)cc1)C1CCC(CCNC(=O)COCCN(C)S(=O)(=O)c2ccc(F)cc2)CC1 (centres unmarked) [Example 487] | 37% | 9%
32 | CN(C)C(c1ccc(F)cc1)C1CCC(CNC(=O)COC2CCCN(S(=O)(=O)c3ccccc3)C2)CC1 (centres unmarked) [Example 488] | 40% | −6%
33 | CN(C)C(c1ccc(F)cc1)C1CCC(CCNC(=O)COCCN(Cc2ccccc2)S(=O)(=O)c2ccccc2)CC1 (centres unmarked) [Example 489] | 35% | 22%
34 | Cc1cc(C)c(S(=O)(=O)N(C)CCOCC(=O)NC2CCC(C(c3ccc(F)cc3)N(C)C)CC2)c(C)c1 (centres unmarked) [Example 490] | 42% | 12%
35 | Cc1ccc(S(=O)(=O)N2CCC(OCC(=O)NCCC3CCC(C(c4ccc(F)cc4)N(C)C)CC3)C2)cc1 (centres unmarked) [Example 491] | 34% | 16%
36 | COc1cc(C)c(S(=O)(=O)N2CCC(OCC(=O)NCCC3CCC(C(c4ccc(Cl)cc4)N(C)C)CC3)C2)c(C)c1 (centres unmarked) [Example 492] | 44% | 78%
37 | CN(C)C(c1ccc(F)cc1)C1CCC(CCNC(=O)COCCN2CCN(S(=O)(=O)c3ccccc3)CC2)CC1 (centres unmarked) [Example 493] | 34% | 4%
